# Source: patent US9908895B2, “Tricyclic fused thiophene derivatives as JAK inhibitors” (Incyte Corporation, priority 2012, dated 2018)
# Test system: human JAK1
# Test: In vitro JAK kinase assay (HTRF), JAK1
# Type: biochemical
# Conditions: ratio of JAK2 IC50 to JAK1 IC50 at 1 mM ATP
# Description: Compounds herein were tested for inhibitory activity of JAK targets according to the following in vitro assay described in Park et al., Analytical Biochemistry 1999, 269, 94-104. The catalytic domains of human JAK1 (a.a. 837-1142), JAK2 (a.a. 828-1132) and JAK3 (a.a. 781-1124) were expressed using baculovirus in insect cells and purified. The catalytic activity of JAK1, JAK2 or JAK3 was assayed by measuring the phosphorylation of a biotinylated peptide. The phosphorylated peptide was detected by homogenous time resolved fluorescence (HTRF). IC50s of compounds were measured for each kinase in the 40 μL reactions that contain the enzyme, ATP and 500 nM peptide in 50 mM Tris (pH 7.8) buffer with 100 mM NaCl, 5 mM DTT, and 0.1 mg/mL (0.01%) BSA. For the 1 mM IC50 measurements, ATP concentration in the reactions was 1 mM. Reactions were carried out at room temperature for 1 hour and then stopped with 20 μL 45 mM EDTA, 300 nM SA-APC, 6 nM Eu-Py20 in assay buffer (Perkin Elmer, Boston, Mass.). Binding to the Europium labeled antibody took place for 40 minutes and HTRF signal was measured on a PHERA star plate reader (BMG, Cary, N.C.). The Example compounds were each tested in the Example A assay (see Table 1 for data for the compounds of the examples as tested by the assay of Example A at 1 mM ATP).
row,JAK2/JAK1,Compound
1,>10,"C[C@@H](O)c1nc2cnc3ccsc3c2n1C1CCC(O)(CC#N)CC1 (single isomer, unassigned) [24 (first peak)]"
2,>2,"C[C@@H](O)c1nc2cnc3ccsc3c2n1C1CCC(NCCC#N)CC1 (single isomer, unassigned) [30 (first peak)]"
3,>10,"C[C@@H](O)c1nc2cnc3ccsc3c2n1C1CCC(NCCC#N)CC1 (single isomer, unassigned) [30 (second peak)]"
4,>5,"N#CCC1CCC(CO)(n2cnc3cnc4ccsc4c32)CC1 (single isomer, unassigned) [72 (second peak), [4-(Hydroxymethyl)-4-(1H-imidazo[4,5-d]thieno[3,2-b]pyridin-1-yl)cyclohexyl]acetonitrile]"
5,>3,"C[C@@H](O)c1nc2cnc3ccsc3c2n1[C@H]1CCCOC1 [Example 1, (1R)-1-{1-[(3S)-Tetrahydro-2H-pyran-3-yl]-1H-imidazo[4,5-d]thieno[3,2-b]pyridin-2-yl}ethanol]"
6,>10,"C[C@@H](O)c1nc2cnc3ccsc3c2n1[C@H]1CC[C@H](CC#N)CC1 [Example 2, (trans-4-{2-[(1R)-1-Hydroxyethyl]-1H-imidazo[4,5-d]thieno[3,2-b]pyridin-1-yl}cyclohexyl)acetonitrile]"
7,>10,"C[C@@H](O)c1nc2cnc3ccsc3c2n1[C@H]1CC[C@H](O)CC1 [Example 3, trans-4-{2-[(1R)-1-Hydroxyethyl]-1H-imidazo[4,5-d]thieno[3,2-b]pyridin-1-yl}cyclohexanol]"
8,>10,"C[C@@H](O)c1nc2cnc3ccsc3c2n1[C@H]1CC[C@H](NCC(F)(F)F)CC1 [Example 4, (1R)-1-(1-{trans-4-[(2,2,2-Trifluoroethyl)amino]cyclohexyl}-1H-imidazo[4,5-d]thieno[3,2-b]pyridin-2-yl)ethanol]"
9,>10,"C[C@@H](O)c1nc2cnc3ccsc3c2n1[C@H]1CC[C@H](CCS(C)(=O)=O)CC1 [Example 5, (1R)-1-(1-{trans-4-[2-(Methylsulfonyl)ethyl]cyclohexyl}-1H-imidazo[4,5-d]thieno[3,2-b]pyridin-2-yl)ethanol]"
10,>6,"C[C@@H](O)c1nc2cnc3ccsc3c2n1[C@H]1CC[C@@H](n2cncn2)CC1 [Example 6, (1R)-1-{1-[cis-4-(1H-1,2,4-Triazol-1-yl)cyclohexyl]-1H-imidazo[4,5-d]thieno[3,2-b]pyridin-2-yl}ethanol]"
11,>10,"C[C@@H](O)c1nc2cnc3ccsc3c2n1[C@H]1CC[C@@H](C#N)CC1 [Example 7, cis-4-{2-[(1R)-1-Hydroxyethyl]-1H-imidazo[4,5-d]thieno[3,2-b]pyridin-1-yl}cyclohexanecarbonitrile]"
12,>10,"C[C@@H](O)c1nc2cnc3ccsc3c2n1[C@H]1CC[C@H](CCC#N)CC1 [Example 8, 3-(trans-4-{2-[(1R)-1-Hydroxyethyl]-1H-imidazo[4,5-d]thieno[3,2-b]pyridin-1-yl}cyclohexyl)propanenitrile]"
13,>10,"C[C@@H](O)c1nc2cnc3ccsc3c2n1[C@H]1CC[C@H](CC#N)CC1.Cl [Example 10, (trans-4-{2-[(1R)-1-Hydroxyethyl]-1H-imidazo[4,5-d]thieno[3,2-b]pyridin-1-yl}cyclohexyl)acetonitrile HCl salt]"
14,>10,"C[C@@H](O)c1nc2cnc3ccsc3c2n1[C@H]1CC[C@H](CO)CC1 [Example 11, (1R)-1-{1-[trans-4-(Hydroxymethyl)cyclohexyl]-1H-imidazo[4,5-d]thieno[3,2-b]pyridin-2-yl}ethanol]"
15,>10,"C[C@@H](O)c1nc2cnc3ccsc3c2n1[C@H]1CC[C@H](CF)CC1 [Example 12, (1R)-1-{1-[trans-4-(Fluoromethyl)cyclohexyl]-1H-imidazo[4,5-d]thieno[3,2-b]pyridin-2-yl}ethanol]"
16,>10,"C[C@@H](O)c1nc2cnc3ccsc3c2n1C1CCCCC1 [Example 13, (1R)-1-(1-Cyclohexyl-1H-imidazo[4,5-d]thieno[3,2-b]pyridin-2-yl)ethanol]"

row,JAK2/JAK1,Compound
1,>5,"CNS(=O)(=O)C[C@H]1CC[C@H](n2c([C@@H](C)O)nc3cnc4ccsc4c32)CC1 [Example 14, 1-(trans-4-{2-[(1R)-1-hydroxyethyl]-1H-imidazo[4,5-d]thieno[3,2-b]pyridin-1-yl}cyclohexyl)-N-methylmethanesulfonamide]"
2,>9,"C[C@@H](O)c1nc2cnc3ccsc3c2n1C1CCN(CC(F)(F)F)CC1 [Example 15, (1R)-1-{1-[1-(2,2,2-Trifluoroethyl)piperidin-4-yl]-1H-imidazo[4,5-d]thieno[3,2-b]pyridin-2-yl}ethanol]"
3,>10,"C[C@@H](O)c1nc2cnc3ccsc3c2n1C1CCN(CCC#N)CC1 [Example 16, 3-(4-{2-[(1R)-1-Hydroxyethyl]-1H-imidazo[4,5-d]thieno[3,2-b]pyridin-1-yl}piperidin-1-yl)propanenitrile]"
4,>10,"N#CC[C@H]1CC[C@H](n2c(CO)nc3cnc4ccsc4c32)CC1 [Example 17, {trans-4-[2-(Hydroxymethyl)-1H-imidazo[4,5-d]thieno[3,2-b]pyridin-1-yl]cyclohexyl}acetonitrile]"
5,>10,"CS(=O)(=O)NCc1nc2cnc3ccsc3c2n1[C@H]1CC[C@H](CC#N)CC1 [Example 18, N-({1-[trans-4-(Cyanomethyl)cyclohexyl]-1H-imidazo[4,5-d]thieno[3,2-b]pyridin-2-yl}methyl)methanesulfonamide]"
6,>10,"C[C@@H](O)c1nc2cnc3ccsc3c2n1[C@H]1CCC(CO)OC1 (stereo partly drawn) [Example 19, (1R)-1-{1-[(3S)-6-(Hydroxymethyl)tetrahydro-2H-pyran-3-yl]-1H-imidazo[4,5-d]thieno[3,2-b]pyridin-2-yl}ethanol]"
7,>4,"CS(=O)(=O)NCc1nc2cnc3ccsc3c2n1[C@H]1CC2CCC1C2 (stereo partly drawn) [Example 22, N-((1-((2S)-Bicyclo[2.2.1]heptan-2-yl)-1H-imidazo[4,5-d]thieno[3,2-b]pyridin-2-yl)methyl)methanesulfonamide]"
8,>6,"N#CC[C@H]1CC[C@H](n2/c(=N/C#N)[nH]c3cnc4ccsc4c32)CC1.O=C(O)C(F)(F)F [Example 25, {(2E)-1-[trans-4-(Cyanomethyl)cyclohexyl]-1,3-dihydro-2H-imidazo[4,5-d]thieno[3,2-b]pyridin-2-ylidene}cyanamide trifluoroacetate]"
9,>10,"N#CC[C@H]1CC[C@H](n2c(C3CC3)nc3cnc4ccsc4c32)CC1 [Example 26, [trans-4-(2-Cyclopropyl-1H-imidazo[4,5-d]thieno[3,2-b]pyridin-1-yl)cyclohexyl]acetonitrile]"
10,>10,"CC(C)c1nc2cnc3ccsc3c2n1[C@H]1CC[C@H](CC#N)CC1 [Example 27, [trans-4-(2-Isopropyl-1H-imidazo[4,5-d]thieno[3,2-b]pyridin-1-yl)cyclohexyl]acetonitrile]"
11,>7,"N#CC[C@H]1CC[C@H](n2c(C3CNC3)nc3cnc4ccsc4c32)CC1 [Example 28, [trans-4-(2-Azetidin-3-yl-1H-imidazo[4,5-d]thieno[3,2-b]pyridin-1-yl)cyclohexyl]acetonitrile]"
12,>9,"CN1CC(c2nc3cnc4ccsc4c3n2[C@H]2CC[C@H](CC#N)CC2)C1 [Example 29, {trans-4-[2-(1-Methylazetidin-3-yl)-1H-imidazo[4,5-d]thieno[3,2-b]pyridin-1-yl]cyclohexyl}acetonitrile]"
13,>10,"C[C@@H](O)c1nc2cnc3ccsc3c2n1C1CCCC(CCC#N)C1 (stereo partly drawn) [Example 32, 3-(3-{2-[(1R)-1-Hydroxyethyl]-1H-imidazo[4,5-d]thieno[3,2-b]pyridin-1-yl}cyclohexyl)propanenitrile]"
14,>7,"Cc1nc2cnc3ccsc3n2c1-c1ccc(CC#N)cc1 [Example 33, [4-(7-Methylimidazo[1,2-a]thieno[3,2-e]pyrazin-8-yl)phenyl]acetonitrile]"
15,>10,"Cc1nc2cnc3ccsc3c2n1[C@H]1CC[C@H](CC#N)OC1 [Example 38, [(2R,5S)-5-(2-Methyl-1H-imidazo[4,5-d]thieno[3,2-b]pyridin-1-yl)tetrahydro-2H-pyran-2-yl]acetonitrile]"
16,>10,"CCc1nc2cnc3ccsc3c2n1[C@H]1CC[C@H](CC#N)OC1 [Example 39, [(2R,5S)-5-(2-Ethyl-1H-imidazo[4,5-d]thieno[3,2-b]pyridin-1-yl)tetrahydro-2H-pyran-2-yl]acetonitrile]"

row,Compound,JAK2/JAK1
1,CCc1nc2cnc3ccsc3c2n1[C@@H]1CC[C@@H](CC#N)[C@@H](O)C1 (mixture of isomers) [Example 35],>10
2,"C[C@@H](O)c1nc2cnc3ccsc3c2n1[C@H]1CC[C@H](CC#N)OC1 [Example 20, ((2R,5S)-5-{2-[(1R)-1-Hydroxyethyl]-1H-imidazo[4,5-d]thieno[3,2-b]pyridin-1-yl}tetrahydro-2H-pyran-2-yl)acetonitrile]",>10
3,"C[C@@H](O)c1nc2cnc3ccsc3c2n1[C@H]1CC[C@@H](CC#N)OC1 [Example 21, ((2S,5S)-5-{2-[(1R)-1-Hydroxyethyl]-1H-imidazo[4,5-d]thieno[3,2-b]pyridin-1-yl}tetrahydro-2H-pyran-2-yl)acetonitrile]",>10
